Earlier results as cited in patent US5756661A, “Pentaclethra macroloba derived substances having insecticide, agglutination and aminopeptidase inhibition activity” (Pioneer Hi-Bred International, Inc., priority 1996, dated 1998).

System: aminopeptidases
Details: references 13, 1

SMILES | inhibition of the activity of several aminopeptidases
CC(C)C[C@H](NC(=O)[C@@H](O)[C@H](N)Cc1ccccc1)C(=O)O [bestatin] | completely inhibit
CC(C)C[C@@H](N)[C@H](O)C(=O)N[C@H](C(=O)N[C@H](C(=O)N[C@@H](CC(=O)O)C(=O)O)C(C)C)C(C)C [amastatin] | completely inhibit
